This assay concerns the target T1, Sodium- and chloride-dependent glycine transporter 1 (Homo sapiens, UniProt P48067).
T1 sequence (P48067 whole entry): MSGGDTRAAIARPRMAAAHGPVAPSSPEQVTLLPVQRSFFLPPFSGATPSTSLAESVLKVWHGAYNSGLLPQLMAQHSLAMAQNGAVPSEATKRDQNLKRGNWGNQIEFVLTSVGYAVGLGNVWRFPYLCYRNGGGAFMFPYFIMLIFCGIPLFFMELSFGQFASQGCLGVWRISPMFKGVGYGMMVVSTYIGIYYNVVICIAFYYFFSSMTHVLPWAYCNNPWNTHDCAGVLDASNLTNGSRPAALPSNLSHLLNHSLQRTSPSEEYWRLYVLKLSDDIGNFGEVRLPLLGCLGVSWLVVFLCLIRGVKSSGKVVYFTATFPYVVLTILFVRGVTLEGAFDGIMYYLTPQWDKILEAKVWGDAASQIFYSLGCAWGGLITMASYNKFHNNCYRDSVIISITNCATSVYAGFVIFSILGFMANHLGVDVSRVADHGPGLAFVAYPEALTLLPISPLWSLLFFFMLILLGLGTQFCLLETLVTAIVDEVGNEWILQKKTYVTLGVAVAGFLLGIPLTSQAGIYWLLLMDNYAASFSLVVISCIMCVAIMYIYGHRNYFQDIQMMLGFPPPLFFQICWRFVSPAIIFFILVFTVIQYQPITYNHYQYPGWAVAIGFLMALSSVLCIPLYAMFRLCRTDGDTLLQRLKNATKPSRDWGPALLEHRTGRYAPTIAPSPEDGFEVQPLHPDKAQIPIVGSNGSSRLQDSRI
Put plainly: Radioligand Binding Assay: Radioligand binding to human GlyT1c transporter-expressing membranes was determined as described in Mezler et al., Molecular Pharmacology 74:1705-1715, 2008.

One may read the Ki as the equilibrium dissociation constant of an inhibitor or competing ligand from its target. As for `Cn1cnc(S(=O)(=O)NCc2cc3c(cc2F)C[C@@H](N)[C@H]3Cc2ccccc2)c1` (relative stereo), the inhibition constant (Ki) was under 10 nM.

(Values after ChEMBL document CHEMBL3886455, “Aminoindane derivatives, pharmaceutical compositions containing them, and their use in therapy” (2016).)
